Data taken from US12581252B2, “Substituted pyrrolo[3,4-b]pyridines as PI3K-α inhibitors” (Relay Therapeutics, Inc., priority 2020, dated 2026).

Molecular target: H1047R PIK3CA enzyme (Homo sapiens, UniProt P42336, H1047R)
Test: ADP-Glo Biochemical PIK3CA Kinase Assay

H1047R PIK3CA enzyme, sequence (P42336 whole entry H1047R): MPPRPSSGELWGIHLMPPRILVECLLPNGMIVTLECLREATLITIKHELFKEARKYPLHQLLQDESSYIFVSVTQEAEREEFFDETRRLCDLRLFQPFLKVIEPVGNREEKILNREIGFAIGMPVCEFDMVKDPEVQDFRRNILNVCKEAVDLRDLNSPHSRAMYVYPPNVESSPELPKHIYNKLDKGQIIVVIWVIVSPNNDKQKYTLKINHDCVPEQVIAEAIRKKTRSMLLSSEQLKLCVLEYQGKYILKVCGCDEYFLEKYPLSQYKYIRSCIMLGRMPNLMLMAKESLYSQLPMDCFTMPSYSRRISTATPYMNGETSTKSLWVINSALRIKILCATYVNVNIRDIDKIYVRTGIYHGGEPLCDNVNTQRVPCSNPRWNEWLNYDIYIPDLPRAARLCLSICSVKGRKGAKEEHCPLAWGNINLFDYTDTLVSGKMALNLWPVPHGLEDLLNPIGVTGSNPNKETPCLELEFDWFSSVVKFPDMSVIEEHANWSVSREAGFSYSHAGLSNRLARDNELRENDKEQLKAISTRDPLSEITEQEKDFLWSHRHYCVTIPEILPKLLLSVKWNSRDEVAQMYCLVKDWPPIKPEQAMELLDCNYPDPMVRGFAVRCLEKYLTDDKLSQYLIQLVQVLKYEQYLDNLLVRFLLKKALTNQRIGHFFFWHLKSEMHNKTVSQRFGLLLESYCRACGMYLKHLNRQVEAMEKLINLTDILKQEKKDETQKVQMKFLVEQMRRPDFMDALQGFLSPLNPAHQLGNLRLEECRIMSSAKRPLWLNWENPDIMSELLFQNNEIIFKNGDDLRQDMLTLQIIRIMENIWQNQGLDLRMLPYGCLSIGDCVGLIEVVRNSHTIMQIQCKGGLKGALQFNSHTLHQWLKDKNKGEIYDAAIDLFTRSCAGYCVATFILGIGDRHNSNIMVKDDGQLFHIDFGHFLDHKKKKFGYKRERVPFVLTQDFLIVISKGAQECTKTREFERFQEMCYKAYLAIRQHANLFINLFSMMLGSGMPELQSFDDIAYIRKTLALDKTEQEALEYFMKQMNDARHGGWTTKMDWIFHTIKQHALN
H1047R PIK3CA enzyme, sequence (P27986 whole entry partner): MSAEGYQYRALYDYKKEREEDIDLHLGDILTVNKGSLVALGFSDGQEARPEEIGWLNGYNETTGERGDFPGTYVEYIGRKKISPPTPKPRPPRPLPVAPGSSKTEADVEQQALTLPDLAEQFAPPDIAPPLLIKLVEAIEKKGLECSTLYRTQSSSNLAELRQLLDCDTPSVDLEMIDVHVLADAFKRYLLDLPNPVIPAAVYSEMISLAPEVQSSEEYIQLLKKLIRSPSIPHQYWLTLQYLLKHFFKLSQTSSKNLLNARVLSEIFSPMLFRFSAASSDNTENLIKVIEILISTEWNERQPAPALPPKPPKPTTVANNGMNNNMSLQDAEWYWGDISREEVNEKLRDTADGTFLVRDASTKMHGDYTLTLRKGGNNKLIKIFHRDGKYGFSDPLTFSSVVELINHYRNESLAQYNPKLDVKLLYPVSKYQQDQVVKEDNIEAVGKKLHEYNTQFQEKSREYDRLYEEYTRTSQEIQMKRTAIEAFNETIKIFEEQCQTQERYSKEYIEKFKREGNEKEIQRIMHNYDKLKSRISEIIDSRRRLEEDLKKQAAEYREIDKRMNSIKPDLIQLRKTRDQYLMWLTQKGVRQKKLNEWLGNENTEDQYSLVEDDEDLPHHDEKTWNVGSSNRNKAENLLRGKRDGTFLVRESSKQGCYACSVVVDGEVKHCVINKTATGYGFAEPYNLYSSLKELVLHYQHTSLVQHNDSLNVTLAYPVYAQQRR

Question: `Cc1ccccc1C1NC(=O)c2ccnc(NC(=O)c3nsc4ccccc34)c21` (centres unmarked) [Compound I-176, N-[3-(2-Methylphenyl)-1-oxo-1H,2H,3H-pyrrolo[3,4-c]pyridin-4-yl]-1,2-benzothiazole-3-carboxamide] was tested. Which IC50 did it give?
Answer: Its IC50 is 1000 to 10000 nM.

Question: `O=C(Nc1cc(C(O)C2(O)COC2)cc2c1C(c1cc(F)ccc1Cl)NC2=O)c1cc(F)cc(C(F)(F)F)c1` (centres unmarked) [Compound I-1337] was tested. Which IC50 did it give?
Answer: Its IC50 is 100 to 500 nM.

Question: `N#Cc1cc(NC(=O)N2C[C@@H](O)c3cc(F)ccc32)c2c(c1)C(=O)N[C@@H]2c1cc(F)ccc1Cl` (single isomer, unassigned) [Compound I-2492] was tested. Which IC50 did it give?
Answer: Its IC50 is 500 to 1000 nM.

Question: With `O=C(Nc1cccc2c1C(C1=C(F)CCCC1)NC2=O)c1cc(F)cc(C(F)(F)F)c1` (racemic) [Compound I-1790] as the molecule, how does the IC50 read?
Answer: The IC50 was 500 to 1000 nM.

Question: `Cc1cnccc1-c1cc(NC(=O)c2cc(F)cc(C(F)(F)F)c2)c2c(c1)C(=O)N[C@@H]2c1cc(F)ccc1Cl` (stereo in doubt) [Compound I-1011] was tested. Which IC50 did it give?
Answer: The IC50 was 1000 to 10000 nM.

Question: For `Cc1ccccc1C1NC(=O)c2c(C#N)ncc(NC(=O)c3cc(F)cc(C(F)(F)F)c3)c21` (centres unmarked) [Compound I-236], which IC50 is on record?
Answer: The IC50 was 1000 to 10000 nM.

Question: For `O=C(Nc1cc(Br)cc2c1C(c1ccccc1Cl)NC2=O)c1cc(F)cc(C(F)(F)F)c1` (centres unmarked) [Compound I-394], which IC50 is on record?
Answer: Its IC50 is 100 to 500 nM.

Question: `Cc1ccccc1C1NC(=O)c2c(C(=O)O)ccc(NC(=O)c3nsc4ccccc34)c21` (centres unmarked) [Compound I-278] was tested. Which IC50 did it give?
Answer: The IC50 was 500 to 1000 nM.

Question: With `Cc1c(-c2cc(NC(=O)c3cc(F)cc(C(F)(F)F)c3)c3c(c2)C(=O)N[C@@H]3c2cc(F)ccc2Cl)ccc2ncnn12` [Compound I-1875] as the molecule, how does the IC50 read?
Answer: The IC50 was 1000 to 10000 nM.

Question: For `COCc1cc(F)cc(C(=O)Nc2cc(Br)cc3c2C(c2cc(F)ccc2Cl)NC3=O)c1` (centres unmarked) [Compound I-1316], which IC50 is on record?
Answer: Its IC50 is 1000 to 10000 nM.

Question: `CN(C)S(=O)(=O)n1nccc1-c1cc(NC(=O)c2cc(F)cc(C(F)(F)F)c2)c2c(c1)C(=O)NC2c1cc(F)ccc1Cl` (centres unmarked) [Compound I-1439] was tested. Which IC50 did it give?
Answer: Its IC50 is at most 100 nM.

Question: `O=C1N[C@H](c2cc(F)ccc2Cl)c2c(NC(=O)N3C[C@@H](O)c4ccc(F)cc43)cccc21` (stereo in doubt) [Compound I-2173] was tested. Which IC50 did it give?
Answer: The IC50 was 1000 to 10000 nM.

Question: Which IC50 does the source give for `O=C1NC(c2cc(F)ccc2Cl)c2c(NC(=O)C34CC5CC(CC(C5)O3)C4)cccc21` (centres unmarked) [Compound I-2303] here?
Answer: Its IC50 is 10000 to 100000 nM.

Question: With `O=C(Nc1cc(Br)cc2c1C(c1ccc(F)cc1Cl)NC2=O)c1cc(F)cc(C(F)(F)F)c1` (centres unmarked) [Compound I-756] as the molecule, how does the IC50 read?
Answer: The IC50 was 100 to 500 nM.

Question: For `O=C1NC(c2cc(F)ccc2Cl)c2c1cc(-c1ccc3ncnn3c1)cc2N(CC(=O)N1CCCCC1)C(=O)C(F)(F)F` (centres unmarked) [Compound I-2001], which IC50 is on record?
Answer: The IC50 was 10000 to 100000 nM.

Question: `O=C(Nc1cccc2c1C(c1cccc3ccccc13)NC2=O)c1cc(F)cc(C(F)(F)F)c1` (centres unmarked) [Compound I-431] was tested. Which IC50 did it give?
Answer: Its IC50 is 1000 to 10000 nM.

Question: Which IC50 does the source give for `C[C@H](C#N)Cn1cc(-c2cc(NC(=O)N3C[C@@H](O)c4cc(F)ccc43)c3c(c2)C(=O)N[C@H]3c2cc(F)ccc2Cl)cn1` (single isomer, unassigned) [Compound I-2502] here?
Answer: Its IC50 is 1000 to 10000 nM.

Question: How did the IC50 turn out when `N#Cc1cnc2cnc(-c3cc(NC(=O)c4cc(F)cc(C(F)(F)F)c4)c4c(c3)C(=O)N[C@@H]4c3cc(F)ccc3Cl)cn12` [Compound I-1922] was run?
Answer: The IC50 was 1000 to 10000 nM.

Question: With `CC(=O)N1CC[C@H](Oc2cc(NC(=O)c3cc(F)cc(C(F)(F)F)c3)c3c(c2)C(=O)NC3c2cc(F)ccc2Cl)C1` (single isomer, unassigned) [Compound I-1541] as the molecule, how does the IC50 read?
Answer: The IC50 was 100 to 500 nM.

Question: `CN1CCCC[C@H]1C(=O)Nc1cc(-c2ccc3ncnn3c2)cc2c1[C@@H](c1cc(F)ccc1Cl)NC2=O` (racemic) [Compound I-1947] was tested. Which IC50 did it give?
Answer: The IC50 was 10000 to 100000 nM.

Question: Which IC50 does the source give for `N#CN1CC(Oc2cc(NC(=O)c3cc(F)cc(C(F)(F)F)c3)c3c(c2)C(=O)NC3c2cc(F)ccc2Cl)C1` (centres unmarked) [Compound I-1205] here?
Answer: The IC50 was at most 100 nM.

Question: How did the IC50 turn out when `Cc1ccccc1C1NC(=O)c2cccc(NC(=O)N3CCc4ccc(Cl)cc43)c21` (centres unmarked) [Compound I-110] was run?
Answer: Its IC50 is 100 to 500 nM.

Question: Which IC50 does the source give for `COC(=O)c1cc(NC(=O)c2nsc3ccccc23)c2c(c1)C(=O)NC2c1ccccc1C` (centres unmarked) [Compound I-314] here?
Answer: The IC50 was 500 to 1000 nM.

Question: How did the IC50 turn out when `Cn1cc(-c2cc(NC(=O)c3cc(F)cc(Cl)c3)c3c(n2)C(=O)N[C@H]3c2cc(F)ccc2Cl)cn1` [Compound I-386] was run?
Answer: Its IC50 is at most 100 nM.

Question: For `O=C(O)c1cc(-c2ccc3ncnn3c2)cc2c1C(c1cc(F)ccc1Cl)NC2=O` (centres unmarked) [Compound I-1784], which IC50 is on record?
Answer: Its IC50 is 10000 to 100000 nM.

Question: With `O=C(Nc1cccc2c1[C@H](C1CCCCC1)NC2=O)c1cc(F)cc(C(F)(F)F)c1` [Compound I-2052] as the molecule, how does the IC50 read?
Answer: Its IC50 is 1000 to 10000 nM.

Question: `CN(C)S(=O)(=O)n1nccc1-c1cc(NC(=O)c2cc(F)cc(C(F)(F)F)c2)c2c(c1)C(=O)N[C@H]2c1cc(F)ccc1Cl` [Compound I-1599] was tested. Which IC50 did it give?
Answer: The IC50 was at most 100 nM.

Question: With `Cn1ccc2c(F)cc(C(=O)Nc3cc(Br)cc4c3C(c3cc(F)ccc3Cl)NC4=O)cc21` (centres unmarked) [Compound I-1005] as the molecule, how does the IC50 read?
Answer: Its IC50 is 1000 to 10000 nM.

Question: For `Cc1cnccc1-c1cc(NC(=O)c2cc(F)cc(Cl)c2)c2c(n1)C(=O)NC2c1cc(F)ccc1Cl` (centres unmarked) [Compound I-503], which IC50 is on record?
Answer: Its IC50 is at most 100 nM.

Question: For `CC(C)(O)c1cc(NC(=O)c2cc(F)cc(C(F)(F)F)c2)c2c(c1)C(=O)NC2c1cc(F)ccc1Cl` (centres unmarked) [Compound I-128, N-(3-(2-chloro-5-fluorophenyl)-6-(2-hydroxypropan-2-yl)-1-oxoisoindolin-4-yl)-3-fluoro-5-(trifluoromethyl)benzamide], which IC50 is on record?
Answer: The IC50 was at most 100 nM.

Question: `O=C(Nc1cccc2c1C(CC1CCCC1)NC2=O)c1cc(F)cc(C(F)(F)F)c1` (centres unmarked) [Compound I-2109] was tested. Which IC50 did it give?
Answer: The IC50 was 1000 to 10000 nM.

Question: For `O=C(Nc1cc(OC2CC(O)C2)cc2c1C(c1cc(F)ccc1Cl)NC2=O)c1cc(F)cc(C(F)(F)F)c1` (centres unmarked) [Compound I-1132], which IC50 is on record?
Answer: Its IC50 is 100 to 500 nM.

Question: For `N#CCc1cc(NC(=O)N2C[C@](O)(C(F)(F)F)c3cc(F)ccc32)c2c(c1)C(=O)N[C@H]2c1cc(F)ccc1Cl` (single isomer, unassigned) [Compound I-2625], which IC50 is on record?
Answer: Its IC50 is 1000 to 10000 nM.

Question: For `[2H][C@]1(c2cc(F)ccc2Cl)NC(=O)c2cccc(NC(=O)N3C[C@](O)(C(F)(F)F)c4cc(F)ccc43)c21` (single isomer, unassigned) [Compound I-2684], which IC50 is on record?
Answer: Its IC50 is 10000 to 100000 nM.

Question: `CN1C[C@H](COc2cc(NC(=O)c3cc(F)cc(C(F)(F)F)c3)c3c(c2)C(=O)N[C@@H]3c2cc(F)ccc2Cl)CC1=O` (single isomer, unassigned) [Compound I-1521] was tested. Which IC50 did it give?
Answer: The IC50 was at most 100 nM.

Question: Which IC50 does the source give for `NCCc1cc(NC(=O)N2C[C@@](O)(C(F)(F)F)c3cc(F)ccc32)c2c(c1)C(=O)N[C@@H]2c1cc(F)ccc1Cl` (single isomer, unassigned) [Compound I-2583] here?
Answer: The IC50 was 1000 to 10000 nM.

Question: `O=C1NC(c2cc(F)ccc2Cl)c2c(NC(=O)N3CCCC4CCCC43)cc(Br)cc21` (centres unmarked) [Compound I-722] was tested. Which IC50 did it give?
Answer: Its IC50 is 100 to 500 nM.

Question: `N#CCC(=O)Nc1cc(-c2ccc3ncnn3c2)cc2c1C(c1cc(F)ccc1Cl)NC2=O` (centres unmarked) [Compound I-2000] was tested. Which IC50 did it give?
Answer: Its IC50 is 10000 to 100000 nM.

Question: For `O=C(Nc1cccc2c1C(c1ccc(Br)cc1Cl)NC2=O)c1cc(F)cc(C(F)(F)F)c1` (centres unmarked) [Compound I-409], which IC50 is on record?
Answer: The IC50 was 1000 to 10000 nM.

Question: For `O=C1NC(c2cc(F)ccc2Cl)c2c(NC(=O)C3CCOc4ccccc43)cc(Br)cc21` (centres unmarked) [Compound I-605], which IC50 is on record?
Answer: The IC50 was 10000 to 100000 nM.

Question: `O=C(Nc1cc(NC(=O)C2CS(=O)(=O)C2)cc2c1C(c1cc(F)ccc1Cl)NC2=O)c1cc(F)cc(C(F)(F)F)c1` (centres unmarked) [Compound I-351] was tested. Which IC50 did it give?
Answer: Its IC50 is at most 100 nM.

Question: Which IC50 does the source give for `O=C(Nc1cc(N2CCn3cncc3C2)cc2c1C(c1cc(F)ccc1Cl)NC2=O)c1cc(F)cc(C(F)(F)F)c1` (centres unmarked) [Compound I-1237] here?
Answer: Its IC50 is at most 100 nM.

Question: With `O=C1NC(c2cc(F)ccc2Cl)c2c(NC(=O)C3(c4ccccc4)COC3)cc(Br)cc21` (centres unmarked) [Compound I-632] as the molecule, how does the IC50 read?
Answer: Its IC50 is 10000 to 100000 nM.

Question: `O=C(Nc1cc(-c2cn3cc(C(F)F)nc3cn2)cc2c1C(c1cc(F)ccc1Cl)NC2=O)c1cc(F)cc(C(F)(F)F)c1` (centres unmarked) [Compound I-2065] was tested. Which IC50 did it give?
Answer: Its IC50 is at most 100 nM.
